{"source": "patent US12187720B2", "about": "“Compounds for treatment of cancer” (ONCTERNAL THERAPEUTICS, INC., priority 2010, dated 2025)", "data": [{"system": "PC-3", "assay": "SRB cytotoxicity assay, PC-3 prostate cancer cells", "format": "cell-based, human", "settings": "Homo sapiens, PC-3; Table 13A; read-out: inhibitory effects PC3", "source_text": "(§1) Cells were stained with SRB solution.", "units": {"IC50": "nM"}, "values": [{"molecule": "COc1cc(C(=O)c2nc(-c3ccccc3)c[nH]2)cc(OC)c1OC", "note": "[70a, (4-phenyl-1H-imidazol-2-yl)(3,4,5-trimethoxyphenyl)methanone]", "IC50": 14}, {"molecule": "COc1cc(C(=O)c2nc(-c3ccccc3)cn2C)cc(OC)c1OC", "note": "[70m, (1-methyl-4-phenyl-1H-imidazol-2-yl)(3,4,5-trimethoxyphenyl)methanone]", "IC50": 16}, {"molecule": "CCn1cc(-c2ccccc2)nc1C(=O)c1cc(OC)c(OC)c(OC)c1", "note": "[70n, (1-ethyl-4-phenyl-1H-imidazol-2-yl)(3,4,5-trimethoxyphenyl)methanone]", "IC50": 25}, {"molecule": "COc1cc(C(=O)c2nc(-c3ccccc3)cn2Cc2ccccc2)cc(OC)c1OC", "note": "[70o, (1-benzyl-4-phenyl-1H-imidazol-2-yl)(3,4,5-trimethoxyphenyl)methanone]", "IC50": 72}, {"molecule": "COc1cc(C(=O)c2nc(-c3ccccc3)cn2C2CCCC2)cc(OC)c1OC", "note": "[70p, (1-cyclopentyl-4-phenyl-1H-imidazol-2-yl)(3,4,5-trimethoxyphenyl)methanone]", "IC50": 56}]}, {"system": "melanoma and prostate cancer cell lines", "assay": "SRB cytotoxicity, summary or average over melanoma and prostate cancer cell lines", "format": "cell-based", "settings": "not given", "values": [{"molecule": "COc1cc(C(=O)c2cccc(-c3ccccc3)c2)cc(OC)c1OC", "note": "[1a, Biphenyl-3-yl(3,4,5-trimethoxyphenyl)methanone]", "antiproliferative activity in words": "hundreds of nanomolar range"}, {"molecule": "COc1cc(C(O)c2csc(-c3ccccc3)n2)cc(OC)c1OC", "note": "(centres unmarked) [2b, (2-Phenylthiazol-4-yl)(3,4,5-trimethoxyphenyl)methanol]", "antiproliferative activity in words": "inactive"}, {"molecule": "CNCc1ccc(-c2nc(C(=O)c3cc(OC)c(OC)c(OC)c3)cs2)cc1.Cl", "note": "[2s, (2-(4-((Methylamino)methyl)phenyl)thiazol-4-yl)(3,4,5-trimethoxyphenyl)methanone hydrochloride]", "antiproliferative activity in words": "abrogated activity"}, {"molecule": "COc1cc(C(=O)c2csc(-c3ccc(CN(C)C)cc3)n2)cc(OC)c1OC.Cl", "note": "[2u, (2-(4-((Dimethylamino)methyl)phenyl)thiazol-4-yl)(3,4,5-trimethoxyphenyl)methanone hydrochloride]", "antiproliferative activity in words": "abrogated activity"}, {"molecule": "COc1cc(/C=C\\c2csc(-c3ccccc3)n2)cc(OC)c1OC", "note": "[3a, (Z)-2-Phenyl-4-(3,4,5-trimethoxystyryl)thiazole]", "antiproliferative activity in words": "lost activity"}]}, {"system": "melanoma and prostate cancer cell lines", "assay": "SRB cytotoxicity, summary or average over melanoma and prostate cancer cell lines", "format": "cell-based", "settings": "average of all seven cell lines", "units": {"IC50": "nM"}, "values": [{"molecule": "Cc1ccc(-c2nc(C(=O)c3ccc(F)cc3)cn2S(=O)(=O)c2ccccc2)cc1", "note": "[11db, (4-fluorophenyl)(1-(phenylsulfonyl)-2-(p-tolyl)-1H-imidazol-4-yl)methanone]", "IC50": 111}, {"molecule": "COc1cc(C(=O)c2cn(S(=O)(=O)c3ccccc3)c(-c3ccc(N(C)C)cc3)n2)cc(OC)c1OC", "note": "[11ga, (2-(4-(dimethylamino)phenyl)-1-(phenylsulfonyl)-1H-imidazol-4-yl)(3,4,5-trimethoxyphenyl)methanone]", "IC50": 285}]}, {"system": "LNCaP", "assay": "SRB cytotoxicity assay, LNCaP prostate cancer cells", "format": "cell-based, human", "settings": "Homo sapiens, LNCaP; Table 6A; read-out: IC50 LNCaP", "source_text": "as §1", "units": {"IC50": "nM"}, "values": [{"molecule": "COc1cc(C(=O)c2csc(-c3ccccc3)n2)cc(OC)c1OCc1ccccc1", "note": "[compound 9]", "IC50": "~10000"}, {"molecule": "O=C(c1ccc(F)cc1)c1csc(-c2ccccc2)n1", "note": "[compound 12]", "IC50": "> 10000"}, {"molecule": "O=C(c1ccc(OC(F)(F)F)cc1)c1csc(-c2ccccc2)n1", "note": "[compound 13]", "IC50": "> 10000"}, {"molecule": "O=C(c1ccc(F)cc1)c1csc(-c2ccc(F)cc2)n1", "note": "[compound 14]", "IC50": "> 10000"}, {"molecule": "O=C(c1csc(-c2cc(F)c(F)c(F)c2)n1)c1c(F)c(F)c(F)c(F)c1F", "note": "[compound 16]", "IC50": "> 10000"}, {"molecule": "COc1cc(C(=O)c2csc(-c3ccccc3)n2)cc(OC)c1OC(=O)CCl", "note": "[compound 18]", "IC50": "~10000"}, {"molecule": "O=C(c1ccc2c(c1)OCO2)N1CCC(c2ccccc2)CC1", "note": "[compound 19]", "IC50": "> 20000"}, {"molecule": "O=C(c1ccc(F)cc1)N1CCC(c2ccccc2)CC1", "note": "[compound 22]", "IC50": "> 20000"}, {"molecule": "COc1cc(C(=O)c2csc(-c3ccccc3)n2)cc(OC)c1OC(=O)C(F)(F)F", "note": "[compound 23]", "IC50": "~10000"}, {"molecule": "COc1cc(-c2nc(C(=O)c3ccc(F)cc3)cn2C(=O)c2ccc(F)cc2)cc(OC)c1OC", "note": "[compound 30]", "IC50": "> 10000"}, {"molecule": "O=C(c1cc(O)c(O)c(O)c1)c1csc(-c2ccccc2)n1", "note": "[compound 33]", "IC50": "> 2000"}]}]}
